From ChEMBL document CHEMBL1926613, “Bisubstrate analogue inhibitors of 6-hydroxymethyl-7,8-dihydropterin pyrophosphokinase: New design with improved properties” (Bioorg Med Chem, 2012)

What follows are compounds tested against T1, 2-amino-4-hydroxy-6-hydroxymethyldihydropteridine pyrophosphokinase (Escherichia coli (strain K12), UniProt P26281) (assay: Inhibition of Escherichia coli HPPK using 6-hydroxymethyl-7,8-dihydropterin as substrate and [32P]-ATP).
T1 sequence (P26281 whole entry): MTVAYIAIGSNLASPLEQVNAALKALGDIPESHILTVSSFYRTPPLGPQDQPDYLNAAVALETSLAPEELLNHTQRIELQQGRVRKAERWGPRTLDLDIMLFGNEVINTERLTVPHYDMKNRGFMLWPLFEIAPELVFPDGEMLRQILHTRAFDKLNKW

Going from `Nc1nc2ncc(CNCCN3CCC(SC[C@H]4O[C@@H](n5cnc6c(N)ncnc65)[C@H](O)[C@@H]4O)CC3)nc2c(=O)[nH]1` to `CC1(C)Nc2nc(N)[nH]c(=O)c2N=C1C(=O)NCCN1CCC(SC[C@H]2O[C@@H](n3cnc4c(N)ncnc43)[C@H](O)[C@@H]2O)CC1`, the IC50 falls from > 100 µM to 3.16 µM.

`Nc1nc2ncc(COP(=O)(O)OP(=O)(O)OP(=O)(O)OP(=O)(O)OC[C@H]3O[C@@H](n4cnc5c(N)ncnc54)[C@H](O)[C@@H]3O)nc2c(=O)[nH]1` showed an IC50 of 0.44 µM.

What follows are compounds tested against T1, 2-amino-4-hydroxy-6-hydroxymethyldihydropteridine pyrophosphokinase (assay: Binding affinity to Escherichia coli HPPK using 6-hydroxymethyl-7,8-dihydropterin as substrate and ATP by fluorometric analysis).

Going from `Nc1nc2ncc(CNCCN3CCC(SC[C@H]4O[C@@H](n5cnc6c(N)ncnc65)[C@H](O)[C@@H]4O)CC3)nc2c(=O)[nH]1` to `CC1(C)Nc2nc(N)[nH]c(=O)c2N=C1C(=O)NCCN1CCC(SC[C@H]2O[C@@H](n3cnc4c(N)ncnc43)[C@H](O)[C@@H]2O)CC1`, the Kd falls from > 150 µM to 2.55 µM.

Work on `Nc1nc2ncc(COP(=O)(O)OP(=O)(O)OP(=O)(O)OP(=O)(O)OC[C@H]3O[C@@H](n4cnc5c(N)ncnc54)[C@H](O)[C@@H]3O)nc2c(=O)[nH]1` yielded a Kd of 0.47 µM.
